Assay [1] relates to mice. The assay can be described thus: Open field test. The format is in vivo, Male C57BL/6 mice. The conditions noted are these: chronic i.p. administration 10 days. On the procedure: (§1) Male C57BL/6 mice, aged 8 weeks (weighing 18–20 g) were used for acute and chronic drug administration and behavioral tests. The mice were housed four per cage under a 12-h light–dark cycle. Mice were raised under stable conditions with food and water ad libitum. All animal studies and experimental procedures were approved by the Animal Care Committees of the Shanghai Institute of Materia Medica, Chinese Academy of Sciences, and experiments were carried out in accordance with EU Directive 2010/63/EU on the protection of animals used for scientific purposes. […] The mice were removed to a sound-attenuating testing room 3–4 h before testing. The behavioral tests were carried out 30 min and 24 h after acute and chronic drugs administration, respectively.
The apparatus was made of opaque Plexiglas (50 cm × 50 cm) and placed in a room with sound proof. A camera was positioned above the apparatus to monitor the animal behaviors. The mice were randomly placed into the center of the sheet following 30 min drugs administration and their behaviors in the open field arena were recorded for 10 min using the camera. […] Locomotor activity and exploratory behavior were measured in the open field test and each animal was placed individually at the center for a 10 min session. The total distance moved and the number of rearing was measured in this experiment. […]

In assay [2] the target is T1, mutant TREK-1 channels (Homo sapiens, UniProt O95069, Q98A).
T1 construct: expressed in transfected cells; host or cells: CHO cells, transient transfection
T1 sequence (O95069 1-411 isoform O95069-2 Q83A): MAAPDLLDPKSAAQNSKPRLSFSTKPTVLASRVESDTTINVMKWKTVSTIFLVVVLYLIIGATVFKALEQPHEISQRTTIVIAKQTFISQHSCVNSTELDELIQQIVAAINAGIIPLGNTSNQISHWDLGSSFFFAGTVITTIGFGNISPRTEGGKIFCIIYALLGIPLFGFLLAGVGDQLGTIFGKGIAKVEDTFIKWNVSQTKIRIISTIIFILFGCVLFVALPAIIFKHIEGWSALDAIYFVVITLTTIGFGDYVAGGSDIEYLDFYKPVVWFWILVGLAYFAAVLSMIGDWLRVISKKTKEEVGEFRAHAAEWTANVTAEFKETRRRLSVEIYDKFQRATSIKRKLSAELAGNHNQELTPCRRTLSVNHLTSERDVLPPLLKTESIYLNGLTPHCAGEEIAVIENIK
The assay can be described thus: Whole-cell voltage clamp of mutant TREK-1 channels. In kind it is cell-based. The conditions noted are these: Q83A mutant. From the text:
(§2) cDNA of the human TREK-1, TREK-2 and TRAAK channels were subcloned into the pEGFPN1 expression vector (Invitrogen), respectively. Mutations were introduced into TREK-1 or TRAAK by PCR using the QuickChange XL sitedirected mutagenesis kit (Agilent Technologies) and were subsequently confirmed by DNA sequencing.
(§3) Chinese hamster ovary (CHO) cells were provided by the Cell Bank of Chinese Academy of Sciences (Shanghai, China). CHO cells were maintained in DMEM/F12 (Gibco) supplemented with 10% fetal bovine serum (Gibco) and 100 μg ml^−1 penicillin-streptomycin (Cellgro) in a humidified incubator at 37 °C (5% CO2). For electrophysiology experiments, cells plated in 35 mm tissue culture dishes (Corning Incorporated) were transiently transfected with the plasmids using PolyJet™ reagent (SignaGen) according to the manufacturer’s instructions. Primers used in this study are listed in Supplementary Table 4.
(§4) All electrophysiological recordings were obtained using patch-clamp recordings in two different configurations: (1) whole cell for macroscopic current dose–response curves; and (2) outside-out and inside-out for macroscopic currents recordings.
(§5) All patch-clamp recordings were conducted 36–96 h after transfection with an Axopatch-200B amplifier (Molecular Devices) at room temperature (23–25 °C). The microelectrodes fashioned from 1.5 mm thin-walled borosilicate glass with filament were pulled from Flaming/Brown type micropipette puller (P-97; SUTTER INSTRUMENT) with the resistances of 3–7 MΩ (whole cell) or 7–15 MΩ (outside-out) when filled with a solution containing (in mM): 140 KCl, 2 MgCl2, 10 EGTA, 1 CaCl2, 10 HEPES (pH 7.3, adjusted with KOH). External solution contained (in mM): 150 NaCl, 5 KCl, 0.5 CaCl2, 1.2 MgCl2, 10 HEPES (pH 7.3, adjusted with NaOH). The current signals were filtered at 1 kHz and digitized at a 10 kHz sampling frequency by using DigiData 1440 A.
Data of whole-cell voltage clamp experiments were fitted using doseResp function. […]

Assay [3] deals with mice. The experiment in a line: Tail suspension test. In kind it is in vivo, Male C57BL/6 mice. The conditions noted are these: chronic i.p. administration 10 days; 0.5, 1, 5 mg kg-1. On the procedure:
as §1
Mice were secured on the shelf by using adhesive tape placed approximately 1 cm from the tip of the tail. The mice were then suspended by placing the other end of the tape on the edge of shelf at the height of 80 cm above the floor. Six-minute session was performed for each animal. A blinded experiment was conducted to record the amount of time spent immobile during the last 4 min of the testing period; the first 2 min were excluded. Because most mice are very active at the beginning of the test, and the potential effects of the treatment can be minimized during the first 2 min. […]

Assay [4] has as its target T2, TRAAK (Homo sapiens, UniProt Q9NYG8).
T2 construct: expressed in transfected cells; host or cells: CHO cells, transient transfection
T2 sequence (Q9NYG8 1-393): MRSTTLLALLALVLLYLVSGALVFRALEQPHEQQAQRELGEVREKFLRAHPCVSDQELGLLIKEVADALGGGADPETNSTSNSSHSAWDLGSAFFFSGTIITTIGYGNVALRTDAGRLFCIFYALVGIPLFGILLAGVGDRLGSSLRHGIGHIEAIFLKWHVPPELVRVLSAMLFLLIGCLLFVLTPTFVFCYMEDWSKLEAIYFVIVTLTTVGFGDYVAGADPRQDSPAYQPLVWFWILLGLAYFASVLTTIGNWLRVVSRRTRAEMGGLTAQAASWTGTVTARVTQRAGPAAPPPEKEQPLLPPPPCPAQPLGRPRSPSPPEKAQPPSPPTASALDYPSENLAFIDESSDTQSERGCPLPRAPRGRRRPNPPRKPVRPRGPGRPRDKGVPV
The experiment in a line: Whole-cell voltage clamp of CHO cells expressing TRAAK. The format is cell-based. The conditions noted are these: whole-cell.
Text: as §2, §3, §4, §5
Data of whole-cell voltage clamp experiments were fitted using doseResp function. The half inhibition concentrations were derived from fits of the dose–response curves to the function:1 I/I0=A1+A2-A1/1+10^logx0-xP, where I 0 and I are current amplitudes before and after application of inhibitors; A 1 and A 2 are constants between 0 and 1; x is the concentration of inhibitor; x o is the concentration when 50% inhibition was reached (IC50), P is the Hill constant.

Structures are written as SMILES.

The IC50 is the point on the concentration scale where inhibition reaches its midpoint. Low values mean inhibition by little substance, high ones a need for much substance.

Turning to `CS(=O)(=O)N(CC(=O)N1CCc2ccccc2C1)c1ccc(Cl)cc1` [TKDC, N-(4-cholorphenyl)-N-(2-(3,4-dihydrosioquinolin-2(1H)-yl)-2-oxoethyl)methanesulfonamide], the “movement into the central area in the open field test” value in assay [1] was “more likely to move into the central area”. Moreover, the “total distance traveled in the open field test” value in assay [1] (among groups) was “no obvious difference”. The IC50 in assay [2] was determined as 2.4 ± 0.6 µM; in assay [4] (CHO cells, WT TRAAK, mean ± s.e.m) it was 65.9 ± 7 µM. Moreover, the “immobility in the tail suspension test” value in assay [3] was “dose-dependent decrease in immobility”. Besides, the “decrease in the current” value in assay [4] (TRAAK, 300 μM TKDC perfused) is recorded as ~ 75%.

The values are drawn from article PMC5575254, “An allosteric ligand-binding site in the extracellular cap of K2P channels” (Nature Communications, 2017).
